The results in this text go back to US20050070529A1, “Use of type 4 phosphodiesterase inhibitors in myocardial diseases” (Merk Pantent GmbH, priority 2001, published 2005).

pEC50, pIC50: −log10 of the molar value.

Test [1] concerns T cells within the PBMC preparation. Nature of the test: Effect of PDE4 inhibitors on T-cell proliferation (3H-thymidine incorporation, anti-CD3 stimulated PBMC). The test is classed as cell-based. The conditions noted are these: Homo sapiens, 120 h, monoclonal antibody to CD3, 5 days, read-out: T-cell prol. IC50. The method, then:
Peripheral blood mononuclear cells (PBMC) were isolated from the blood of healthy donors by the Lymphoprep gradient method. 200000 PBMC/well were cultured in RPMI1640 culture medium containing 5% heat inactivated human serum (AB pool) for 5 days at 37° C. and 10% CO2 in 96 well flat bottom microtiter plates. The T cells within the PBMC preparation were selectively stimulated with an monoclonal antibody to CD3. Cultures were set up as triplicates including a control group receiving no treatment. PDE4 inhibitors were dissolved in DMSO at 10^−2 M and diluted in culture medium. Control cultures were treated with DMSO equivalent to the inhibitor concentration. 18 hrs before the end of the assay, ^3H-thymidine was added to the cultures. The incorporation of radioactivity into the cells was then measured in a beta-counter.
The data of at least three independent experiments were calculated as percent inhibition of the control (mean ±SEM) without inhibitor.
For orientation: Uptake of a labelled nucleoside into DNA is a usual measure of proliferation.

The test system of the next test is IL-2. Nature of the test: IL-2 production in PBMC (ELISA). The test is classed as cell-based. The note with it: Homo sapiens, activator mab anti-CD3, 24 h, read-out: IL2 T-cell IC50. The method, then: (§1) Peripheral blood mononuclear cells (PBMC) were isolated from the blood of healthy donors by the Lymphoprep gradient method. 200000 PBMC/well were cultured in RPMI1640 culture medium containing 5% heat inactivated human serum ([…]). at 37° C. and 10% CO2 in 96 well flat bottom microtiter plates. Cultures were set up as triplicates including a control group. Solutions of PDE4 inhibitors were prepared in DMSO at 10^−2 M and diluted in culture medium. Control cultures were treated with concentrations of DMSO equivalent to the inhibitor concentrations.
(§2) The culture supernatants of three independent experiments were pooled and cytokine activity in the supernatant was measured with commercially available ELISA test kits.
(§3) The data were calculated as percent inhibition/stimulation of the control without the compound and the IC50 value or EC50 value in case of stimulation was determined thereof.
(ELISA stands for enzyme-linked immunosorbent assay.)

The subject of another test is IFN-γ. Nature of the test: IFN-γ production in PBMC (ELISA). The test is classed as cell-based. The conditions noted are these: Homo sapiens, activator mab anti-CD3, 48 h, read-out: IFN-γ T-cell IC50. The method, then:
as §1, §2, §3

The subject of a further test is TNF-α. Nature of the test: TNF-α production in PBMC (ELISA). The conditions noted are these: Homo sapiens, activator LPS, 48 h, read-out: TNF-α macrophage IC50. The test is classed as cell-based. The procedure:
as §1, §2, §3

The next test has as its system IL-10. Nature of the test: IL-10 production in PBMC (ELISA). The test is classed as cell-based, human. The conditions noted are these: activator LPS, 48 h, stimulation; for pEC50: Homo sapiens, read-out: IL10 macrophage EC50. The method, then:
as §1, §2, §3

For another test, the system named is IL-12. Nature of the test: IL-12 production in PBMC (ELISA). The test is classed as cell-based. The conditions noted are these: Homo sapiens, activator SAC + IFNγ, 48 h, read-out: IL12 macrophage IC50. The procedure: as §1, §2, §3

One may read the pIC50 as the negative decadic logarithm of the IC50, by convention in mol/L. Broadly, the pEC50 is −log10 of the EC50, conventionally taken in molar units. Consider `CCOC(=O)Nc1ccc(C(=O)N2CCCC(c3ccc(OC)c(OCC)c3)=N2)cc1` [EMD 125059], for which the pIC50 in test [1] is 7.40; in the test on IL-2 it was 7.22; with IFN-γ, 8.10; in the test on TNF-α, 7.52. The pEC50 with IL-10 is 8.10.
`COc1ccc(C2CNC(=O)C2)cc1OC1CCCC1` (stereo not drawn) [Rolipram, reference compound]: the pIC50 in test [1] was 6.52; with IL-2, 6.15; in the test on IFN-γ it was 6.00; in the test with TNF-α, 6.22; in the test on IL-12 it was less than 7.00. In addition, in the test with IL-10, the pEC50 was 7.30.
With `CCOc1cc(C2=NN(C(=O)c3ccc(NC(=O)c4ccc(OC)cc4)cc3)CCC2)ccc1OC` [EMD 219901], the pIC50 in test [1] is 8.15; in the test with IL-2, 8.52; in the test with IFN-γ it was 8.30; in the test with TNF-α, 8.70. In the test with IL-10, the pEC50 was 9.00.
`CCOc1cc(C2=NN(Cc3ccc(NC(=O)c4cccnc4)cc3)C(=O)SC2)ccc1OC` [EMD 95832]: the pIC50 in test [1] was 7.30; in the test with IL-2, 6.70; with IFN-γ, 8.00; with TNF-α it was 8.05; in the test on IL-12 it was 9.30. Besides, the pEC50 with IL-10 was 7.70.
For the compound `CCOc1cc(C2=NN(C(=O)c3ccc(NC(=O)c4cccnc4)cc3)CCC2)ccc1OC` [EMD 125025], the pIC50 was 8.22 in test [1], 8.70 in the test with IL-2, 8.15 in the test with IFN-γ and 8.52 with TNF-α. In the test on IL-10, the “IL10 macrophage EC50” value is reported as “no effect”.
On to `CCOC(=O)Nc1ccc(CN2N=C(c3ccc(OC)c(OCC)c3)CCC2=O)cc1` [EMD 94360], for which the pIC50 in test [1] is 7.70; with IL-2, 6.52; with IFN-γ it was 7.30; in the test on TNF-α, 7.52; with IL-12, 8.22. Moreover, the pEC50 in the test on IL-10 was 9.00.
